“And” between values parts separate entries of the source, which are not always exact repeats. Equal values may be shown once. “Also recorded” adds a separate entry of the source. Read-outs that look alike come from different tables or passages of the source. Each block holds one molecule with its values, some of them ahead of it.
Columns and labels:
[1] = Chemical stability in isotonic saline and phosphate buffer (Example A); assay type: physicochemical
[2] = Stability in plasma (Example C); assay type: in vitro ADME, rat; details: 37°C, 5-8 hours, reverse phase HPLC
Method: Methods: Compounds were incubated in plasma at 37°C, and aliqouts removed at appropriate time points over the course of 5-8 hours. The aliquots were extracted with 1.5 volumes of methanol and clarified by centrifugation. Supernatants were then evaporated to dryness and the residues reconstituted with 100 µL of isotonic saline and then analyzed by reverse phase HPLC.

[3] = system: microsomal fraction of human liver; assay: Activation by human liver microsomes (Example E); assay type: in vitro ADME
Method: 7.1, 1.3, and 30.1 were tested for conversion to their respective parent compounds by the microsomal fraction of human liver.

isolated rat hepatocytes [4] = assay: Activation to parent compound in isolated rat hepatocytes (Example I); assay type: cell-based; details: 100 µM prodrug
Excerpt: An ODS column was used for analysis. […] Detection was at 310 nm.

[5] = system: glucose production in isolated rat hepatocytes; assay: Inhibition of glucose production in rat hepatocytes (Example J); assay type: cell-based; details: Rattus norvegicus, Hepatocyte; 1 hour, lactate 10 mM / pyruvate 1 mM
Method: Select prodrugs of FBPase inhibitors were tested for inhibition of glucose production in isolated rat hepatocytes.
After a 10 minute equilibration period, lactate and pyruvate were added to 10 mM and 1 mM concentrations, respectively. Addition of gluconeogenic substrates was immediately followed by that of appropriate concentrations of test compound. After 1 hour, an aliquot (0.25 ml) was removed, transferred to an Eppendorf tube and centrifuged. The supernatant (50 µl) was then assayed for glucose content using a Glucose Oxidase kit (Sigma Chemical Co.) as per the manufacturer's instructions.

[6] = Delivery of parent compound to liver after intraperitoneal prodrug (Example U); assay type: in vivo, rat; details: 1.3 at 50 mg/kg i.p.; the last time point measured
Method: Methods: 1.3 was dissolved in DMSO and administered intraperitoneally to fasted rats at a dose of 50 mg/kg. At various time points following drug administration, animals were anesthetized with halothane. The peritoneal cavity was then opened and a blood sample was obtained from the abdominal vena cava and the liver freeze-clamped and excised. Blood and liver samples were processed as described in Example P and analyzed for 6-Amino-9-neopentyl-8-(2-phosphonofuranyl)purine content as described in Example I.

[7] = Oral bioavailability by urinary excretion method (Example M); assay type: in vivo; details: rat, urine, parent compound, read-out: % OBAV Parent
Method: The oral bioavailability of prodrugs of a variety ofphosphonic acid FBPase inhibitors was estimated by a urinary excretion method in rat.
The quantity of parent compound excreted into urine was determined by HPLC analysis. An ODS column eluted with a gradient from potassium phosphate buffer, pH 5.5 to acetonitrile was employed for these measurements. Detection was at 310-325 nm.

human liver microsomes = assay: Identification of the p450 isozyme involved in activation, with specific p450 inhibitors (Example F); assay type: in vitro ADME; details: 250 µM prodrug, ketoconazole, furafylline, sulfaphenazole as inhibitors
Method: Reactions were stopped by addition of methanol to a concentration of 60%, filtered (0.2 µM filter), and lyophilized. Samples were resuspended in HPLC buffer (10 mM phosphate pH 5.5, 2.5 mM octyl-triethyl-ammonium), loaded onto a YMC C8 HPLC column (250 x 4.6 mm), and eluted with a methanol gradient to 80%.

recombinant CYP3A4 = assay: Activation by recombinant CYP3A4 (Example G); assay type: in vitro ADME; details: 30.1 at 250 µM, 37°C, NADPH dependent, linear for 30 minutes
Method: Activation of 30.1 and 28.4 was evaluated in reactions containing microsomes from baculovirus-infected insect cells co-expressing recombinant CYP3A4 and cytochrome p450 reductase (Panvera Corp., Madison, WI).
Methods: Reaction mixture composition was similar to that described in Example E. Reactions were terminated by addition of methanol to a final concentration of 60%, and products typically analyzed by HPLC with use of a YMC reverse phase C8 column (250 x 4.6 mm). […] The effluent was monitored at 254 nm.

[8] = Pharmacokinetics of 30.1 after intravenous dosing (Example N); assay type: in vivo, rat; details: for half-life: 20 mg/kg
Method: The pharmacokinetics of 30.1 were evaluated in the rat.
Methods: 30.1 was administered at 20 mg/kg to fasted rats via the tail vein under light halothane anesthesia. At apropriate time points following drug administration, rats were re-anesthetized with halothane. The peritoneal cavity was then opened and a blood sample was obtained from the abdominal vena cava and the liver freeze-clamped and excised. Blood samples were briefly centrifuged and the plasma fraction was then extracted with 1.5 volumes of methanol, processed, and analyzed by HPLC as described in Example A. Liver samples were excised, frozed in liquid nitrogen, and then homogenized in 100% methanol. Liver extracts were then centrifuged at 14,000 rpm and the methanolic supernatants subsequently filtered and evaporated to dryness. Samples were resuspended in isotonic saline and analyzed by HPLC as described in Example A. Pharmacokinetic parameters were determined with the aid of WinNonLin version 1:1 (Scientific Consulting, Inc.) software. Renal excretions studies were performed as described in Example Q.

[9] = Liver ara-ATP and plasma/urine ara-hypoxanthine after intravenous dosing (Example O); assay type: in vivo, rat
Method: The temporal profile of ara-hypoxanthine and ara-ATP generation following intravenous administration of 30.1 and free ara-AMP was compared in the rat.
Method: 30.1 and ara-AMP (Sigma) were administered to normal, fasted rats intravenously (in saline) via tail vein catheters. At appropriate time points following drug a administration, animals were lightly anesthetized with halothane. The peritoneal cavity was then opened and a blood sample was obtained from the abdominal vena cava and the liver freeze-clamped and excised.
The blood samples were heparinized and plasma was prepared. Plasma samples (100 µL) were mixed with 4 N perchloric acid (40 µL), vortexed, and then clarified by centrifugation. The supernatants were analyzed for ara-hypoxanthine by HPLC with use of a Beckman Ultrasphere ODS column (4.6 x 150 mm). The column was eluted with 100 mM acetic acid at a flow rate of 1.0 mL/min. The eluent was monitored by UV absorbance at 254 nm.
Livers were immediately homogenized in 3 volumes of 10% perchloric acid (w/w), and the extracts clarified by centrifugation at 2500 x g (5 minutes). The resulting supernatants were removed and neutralized with 0.3 volumes of 3M KOH/ 3M KHCO3. The neutralized liver extracts were then spun in an Eppendorf microfuge at 10,000 rpm (20 minutes, 4°C). The supernatants were analyzed for ara-ATP content by reverse phase HPLC (HP1050) using a Whatman Partisphere SA column (4.6 x 125 mm). A gradient from 0.3M ammonium phosphate buffer pH 3.5 to 0.8M ammonium phosphate pH 3.5 was run (1 ml/minute flow rate).
Renal excretion of araH following i.v. administration of 30.1 or ara-AMP was determined as described in Example Q.

[10] = Preliminary 22-day toxicological evaluation, intraperitoneal (Example R); assay type: in vivo, mouse; details: i.p. 10 and 100 mg/kg b.i.d. for 22 days, doses up to 200 mg/kg/d
Excerpt: Death and other obvious signs of toxicity such as weight loss, tremors, ruffling fur, hunching, prostration, diarrhea, lethargy, and hyperactivity were monitored.

[11] = Activation in tissue homogenates, tissue distribution (Example T); assay type: in vitro ADME, rat; details: liver cytosol, which does not contain microsomes
Method: 30.1 is tested for activation in homogenates from various tissues to assess the specificity of liver activation.
Methods: Rats are anaesthetized under halothane and tissues including liver, kidney, brain , heart, stomach, spleen, muscle, lung, and testis are excised and frozen in liquid nitrogen. Tissues are then homogenized in 1 to 3 volumes of 50 mM Tris/HCl, 154 mM KCl, 1 mM EGTA pH 7.4. The homogenate is centrifuged at 10,000 rpm and 4°C for 30 minutes and the supernatant recovered. Liver cytosol is prepared by centrifuging the liver crude extract for 1 hour at 40,000 rpm and 4°C. Reaction mixtures consist of 50 mM KH2PO4 pH 7.4, 13 mM glucose-6-phosphate, 2 mM NADP^+, 10 units of glucose-6-phosphate dehydrogenase, 100 µM 30.1 and tissue homogenate at a protein concentration of 8.5 mg/ml. Reactions are incubated at 37°C. Aliquots are taken after 0 and 1 hour of incubation, and extracted with 60 % methanol. The methanolic extracts are centrifuged at 14,000 rpm, and filtered prior to analysis by HPLC. The samples are loaded onto a YMC C8 column equilibrated with 0.1% TFA and eluted with a methanol gradient to 80%. The activation of 30.1 to ara-AMP is monitored at […]

isolated rat hepatocytes [12] = assay: Active drug metabolites formed after prodrug activation in isolated rat hepatocytes (Example K); details: Dose 100 µM, time point 2h
Method: Methods: Hepatocytes were prepared and incubated as described in Example I. 28.4 and 30.1 and their respective parent compounds, PMEA and ara-AMP, were dissolved in DMSO or methanol to yield 10 mM stock solutions, and then diluted into the cell suspension to yield a final concentration of 100 µM. At appropriate time points over the course of 2-4 hours, aliquots of the cell suspension were removed and spun through a silicon/mineral oil layer into 10% perchloric acid. The cell extracts in the acid layers were neutralized by the addition of 0.3 volumes of 3M KOH/3M KHCO3, and the extract was then centrifuged, filtered (0.2 micron filter) and loaded onto an anion exchange HPLC column equilibrated with 70% A (10 mM ammonium phosphate pH 3.5, 6% ETOH) and 30% B (1 M ammonium phosphate pH 3.5, 6% ETOH). Ara-ATP and PMEApp were eluted with a gradient to 80% B. Detection was at 254 nm.

stability of 1.3 ([1]; 100 µM in phosphate buffer pH 7.4, 1 hour at room temperature): fully stable
metabolism / degradation in fresh rat plasma [2]: no evidence of metabolism
rate of formation of parent compound ([3]; 250 µM prodrug, 37°C, NADPH-generating system): 0.55 nmoles/mg microsomal protein/minute
intrahepatocyte levels of parent compound 6-Amino-9-neopenhyl-8-(2-phosphonofuranyl)purine (isolated rat hepatocytes [4]): similarly high levels
persistence of 6-Amino-9-neopentyl-8-(2-phosphonofuranyl)purine in plasma and liver [6]: 4 h
SMILES: CC(C)(C)Cn1c(-c2ccc(P3(=O)OC4CC(O)CC(C4)O3)o2)nc2c(N)ncnc21 (single isomer, unassigned) [Compound 1.3, 6-Amino-8-(5'-hydroxyl-1',3' cyclohexyl)phosphonofuranyl-9-neopentyl purine]
IC50 [5]: 13 µM

bioavailability at 24 h [7]: 0.5%
SMILES: CC(C)Cn1c(-c2ccc(P(=O)(O)O)o2)nc2ccc(Cl)cc21 [6-Chloro-1-isobutyl-2-(2-phosphono-5-furanyl) benzimidazole]

SMILES: Nc1ncnc2c1ncn2[C@@H]1O[C@H](COP2(=O)OCCC(c3ccncc3)O2)[C@@H](O)[C@@H]1O (stereo partly drawn) [Compound 30.1, Adenine-9-beta-D-arabinofuranoside-5'-[1-(4-pyridyl)-1,3-propyl]monophosphate]
stability / decomposition of 30.1 ([1]; 10 µg/mL in isotonic saline and 100 mM potassium phosphate buffers pH 3, 7 and 9, room temperature, sampled 1, 2, 5, 7 days, HPLC): stable for at least seven days; also recorded: No decomposition
metabolism / degradation in fresh rat plasma [2]: not degraded; also recorded: no evidence of metabolism
reaction rate for the formation of ara-AMP ([3]; 250 µM 30.1, 37°C, human liver microsomes): 0.12 nmoles/min/mg of microsomal protein
primary p450 isoform responsible for activation in human liver (human liver microsomes): CYP3A4
rate of formation of ara-AMP (recombinant CYP3A4): 3.3 ± 0.5 nmoles/ min/ nmole CYP3A4
concentration of prodrug observed in liver ([8]; 20 mg/kg i.v., at 20 minutes): ~ 20 nmoles/g
half-life ([8]; rat, liver, iv, 20 mg/kg i.v., read-out: liver half life (converted)): 54 min
half-life ([8]; rat, plasma, iv, 20 mg/kg i.v., read-out: plasma half life (converted)): 11.4 min
half-life ([8]; rat, plasma, iv, 30.1 in rat, restated in Example S, read-out: plasma half-life): 12 min
clearance ([8]; rat, plasma, iv, 20 mg/kg i.v.): 55.7 mL/min/kg
MRT ([8]; rat, plasma, iv, 20 mg/kg i.v., read-out: mean residence time): 12.6 min
Vd ([8]; rat, plasma, iv, 20 mg/kg i.v., read-out: volume of distribution): 0.7 L/kg
dose excreted at 24 h ([8]; rat, urine, iv, 24 hr urine, read-out: urinary (renal) excretion (24hr)): ~58%
amount of araATP per gram of liver over time (Figure 1A) ([9]; 30.1 i.v. 10 and 3 mg/kg vs araAMP 10 mg/kg): Significantly higher liver levels
ara-hypoxanthine in urine ([9]; i.v. 30.1): Nor was ara-hypoxanthine detected in urine
ara-hypoxanthine (araH) in plasma ([9]; i.v., 30.1 at 10 and 3 mg/kg, ara-AMP at equivalent doses): virtually no araH; also recorded: not detected
liver levels of araATP relative to araA or araAMP ([9]; i.v., summary statements of Example O): 2-5 fold and 2- to 5 fold
mortality and obvious signs of toxicity [10]: safely administered
activation of 30.1 to ara-AMP [11]: does not result in activation
Product concentration nmoles/g cells (ara-ATP) (isolated rat hepatocytes [12]): 108±4 nmoles/g cells
